# “Also recorded” adds a separate entry of the source. Ends that are not written are not given here.
# How the values were obtained:
# [1] = system: HEK-RANK cells (human embryonic kidney cells overexpressing RANK); assay: RANK signaling and receptor half-life study in HEK-RANK cells; assay type: cell-based
# Description: (A) Inhibition of activation of Akt, p38 and ERK by Pep8 (50 μM) was assessed as inhibition of phosphorylation (p) in RAW264.7 cells using Western blot analysis with antibodies against phospho-Akt, phospho-p38 and phospho-ERK. Immunoblots were stripped and then reprobed with antibodies against Akt, p38 and ERK. β-Actin served as loading control. (B) Western blot analyses of NF-κB distribution in the presence or absence of 50 μM Pep8. After treatment with the polypeptide, RAW264.7 cells were fractionated into nuclear and cytoplasmic portions. Nuclear proteins (45 μg) were analyzed with anti-NF-κB p105, p50 and p65 antibodies, while cytoplasmic proteins (30 μg) were analyzed with anti-IκBα. For the non-canonical NF-κB pathway, RelB expression was analyzed in both fractions. β-Actin, HDAC1 and Histone H3 served as loading controls for the cytoplasmic and nuclear fractions, respectively. A representative experiment is shown; time after RANKL stimulation is indicated in parenthesis. (C) Receptor half-life study. […] RANK expression was determined with anti-RANK/TNFRSF11A.
# Murine RAW264.7 cells (ATCC) were cultured in αMEM (Invitrogen) supplemented with 10% FBS (Hyclone). Human embryonic kidney 293 cells (ATCC) were stably transduced with an expression-ready clone (Ex-00007-Lv105, OmicsLink™ Expression Clone, GeneCopoeia™) containing the ORF cDNA of RANK/TNFRSF11A. […]
# monocytes = assay: Cytotoxicity on monocytes; assay type: cell-based; settings: 100 μM
# [2] = system: cathepsin K, TRAP and NFATc1 mRNA in CD14+ cells; assay: Real-time RT-PCR of osteoclast marker genes in CD14+ cells; assay type: cell-based, human; settings: CD14+ cells with M-CSF and RANKL; day 3 to day 11 after RANKL stimulation
# murine CD11b+ cells = assay type: cell-based, mouse
# Source text: (§1) Human peripheral blood mononuclear cells (PBMCs) were isolated by centrifugation over Ficoll gradient (Sigma, Saint Quentin Fallavier, France). CD14^+ cells were magnetically labeled with CD14 Microbeads and positively selected by MACS technology (Miltenyi Biotec, Paris, France) as described previously (Duplomb et al. 2008). CD11b^+ monocytes were purified from murine bone marrow cells obtained by flushing the bone marrow from femora and tibiae of 4-week-old C57BL6 male mice, using MACS microbeads (Baud'huin et al. 2010). The purity of cell preparations was around 96%, as controlled by flow cytometry. Generation of osteoclasts from human CD14^+ and murine CD11b^+ monocytes was performed as described previously (Duplomb et al. 2008, Baud′huin et al. 2010). Briefly, purified cells were cultured in α-minimum essential medium (α-MEM, Gibco/Invitrogen, USA) with 10% fetal calf serum and 25 ng/mL human/murine macrophage colony-stimulating factor (M-CSF, R&D Systems, Abindgton, UK). After 3 days of culture, cell medium was replaced by fresh medium containing M-CSF and recombinant human RANKL (100 ng/mL, R&D system), supplemented with or without a polypeptide of interest (0.5-100 μM) or 50 ng/mL human OPG (R&D Systems) used as a reference inhibitor. Soluble cytokines, receptor and polypeptides were renewed every 3 days until multinucleated osteoclasts had formed. After 12 days of culture for CD14^+ cells and 15 days for CD11b^+ cells, osteoclasts were visualized by TRAP staining (Sigma, France) and cells formed with three or more nuclei were manually counted and analyzed statistically.
# human CD14+ monocytes = assay type: cell-based
# Source text: as §1
sequence,measurement,setting,value
"NVLKLCSGE [Pep8, NVLKLCSGE]",activation of p38 after stimulation with RANKL,[1],strongly inhibited
same,degradation of RANK in presence of cycloheximide,"[1]; CHX 4 μg/mL, Pep8 200 μM, compared with RANKL","lead to a degradation of RANK, although to a somewhat lesser extent"
same,cytotoxic effect,monocytes,no cytotoxic effect
same,"mRNA expression of cathepsin K, TRAP and NFATc1",[2],inhibited the mRNA expression; also recorded: markedly reduced
same,IC50,murine CD11b+ cells,30 µM
same,IC50 of osteoclast formation,murine CD11b+ cells,29 µg/mL
same,"number of TRAP-positive multinucleated cells, % of the number formed without the polypeptide","murine CD11b+ cells; 100 μM, murine cultures",28%
same,IC50,human CD14+ monocytes,40 µM
same,inhibitory activity on osteoclastogenesis,"human CD14+ monocytes; 50 μM polypeptide, screen of 8 new polypeptides",inhibitory activity similar to that of the RANKL-targeting mimetics OP3-4 and WP9QY
same,"number of TRAP-positive multinucleated cells, % of the number formed without the polypeptide","human CD14+ monocytes; 100 μM, human cultures",39%
same,osteoclast development with polypeptide alone,human CD14+ monocytes; absence of RANKL,did not modulate osteoclast development

# From patent US9403873B2, “Peptides targeting receptor activator of nuclear factor-κB (RANK) and their applications” (UNIVERSITE DE NANTES, priority 2011, dated 2016)
